Entries after “also recorded” stand apart in the source; their conditions may differ. Like-named read-outs stand apart in the source and are kept apart here. No end group written: not given here.
Tests used:
[1] = test system: His-TRAF6_310-522; assay: Peptide array, TRAF6 binding; set-up: species or system human; key to T6 interaction (peptide array): +: Interaction with TRAF6 or TRAF2 isindicated according to the results shown in Figure 1c.; -: Interaction with TRAF6 or TRAF2 isindicated according to the results shown in Figure 1c; details: for T6 interaction (peptide array): immobilized peptide, 10 µg per mL His-TRAF6, 4 h RT, two independent experiments; for TRAF6 binding to immobilized peptide (in words): peptide array
Method: (§1) Arrays were synthesized on a Multipep Synthesizer (Intavis Bioanalytical Instruments) on derivatized cellulose (amino-Peg500 UC540, acid-hardened, loading 400 nmol per cm^2, Intavis). After peptides were spot-assembled and deprotected, membranes were washed extensively with dichloromethane, N-methylpyrrolidone, and ethanol and stored at −20 °C until use. Prior to use, filters were rinsed for 10 sec in ethanol and washed three times for ten min each at 50 rpm in PBST (PBS, 0.1% Tween-20) under gentle rocking. Filters were blocked by incubation in PBST supplemented with 5% (w/v) nonfat dry milk powder for 2 h at RT and three washing steps in PBST for 20 min. Subsequently, nonspecific antibody binding sites were blocked by incubation of the filters at 4 °C overnight with either TRAF6 (goat α-TRAF6 C-20 #sc-6223, Santa Cruz Biotech.) or TRAF2 primary antibody (rabbit α-TRAF2 C-20, #sc-876, Santa Cruz Biotech.), diluted at 1:1000 in PBS supplemented with 5% (w/v) nonfat dry milk powder. Following three washing steps with PBS, the filters were incubated with horseradish peroxidase-conjugated α-goat IgG (Dianova, #305-035-003) or α-rabbit IgG (Cell signalling Technology, #7074S) secondary antibody, diluted 1:5000 in PBS supplemented with 5% (w/v) nonfat dry milk powder. Filters were developed with ECL and no nonspecific antibody binding was detected. To detect TRAF6 or TRAF2 binding to the immobilized peptides, filters were washed with PBST and subsequently incubated with 10 µg per mL recombinant purified His-TRAF6 or His-TRAF2 protein in PBST supplemented with 5% (w/v) nonfat dry milk powder for 4 h at RT. After washing the filters in PBST, TRAF protein binding was analyzed by incubation of the filters with TRAF6 (C-20, #sc-6223, Santa Cruz Biotech., used at 1:1000) or TRAF2 (C-20, #sc-876, Santa Cruz Biotech., used at 1:1000) primary and the respective Horseradish peroxidase-coupled secondary antibodies (Dianova, #305-035-003, used at 1:500, or Cell Signalling Technology, #7074, used at 1:5000). ECL signals were captured on X-ray films (Agfa Healthcare).

[2] = test system: His-TRAF2_311-501; assay: Peptide array, TRAF2 binding; set-up: key to T2 interaction (peptide array): +: Interaction with TRAF6 or TRAF2 isindicated according to the results shown in Figure 1c.; -: Interaction with TRAF6 or TRAF2 isindicated according to the results shown in Figure 1c; details: for T2 interaction (peptide array): immobilized peptide, 10 µg per mL His-TRAF2, 4 h RT, two independent experiments
Method: as §1

[3] = test system: His-TRAF6_310-522 (TRAF6); assay: AlphaScreen PPI assay, TRAF6 binding to GST-LMP1/CD40/RANK proteins; set-up: species or system human; details: for Bmax (best-fit value): AlphaScreen signal
Method: AlphaScreen experiments were performed in 96- or 384-well plates (Perkin Elmer, OptiPlate). In both assay formats, His-TRAF and GST-LMP1, GST-CD40, or GST-RANK proteins were incubated together in 40 µL of PBS (protein concentrations were calculated to the final reaction volume of 60 µL) supplemented with 0.5% BSA (Sigma, #A7030) and 0.1% Tween-20 (AppliChem, #A4974), for 1 h at room temperature (RT). If not indicated otherwise, standard protein concentrations were 300 nM for His-TRAF proteins and 100 nM for GST-LMP1 proteins. Ni-NTA-acceptor (Perkin Elmer, #6760619 C) and GST-acceptor (Perkin Elmer, # 6765300) beads were added each to a final concentration of 1–4 µg per mL in a final reaction volume of 60 µL and incubated for 1 h at RT in the dark. AlphaScreen PPI signals were measured in a CLARIOstar reader (BMG Labtech GmbH).
All statistical analyses were performed with Prism v10.1.0 software (GraphPad Software Inc.). Two-way ANOVA was performed on experiments with two factors of variance (Figs. 1e and 3a). Ordinary one-way ANOVA with multiple comparisons was performed on experiments with one factor of variance (Figs. 2a–e, 3c, 6b, 7b, 8c and Supplementary Fig. 2a). For KD determination, the data from each experiment were cleaned for the hook effect (signal depletion by oversaturation of the beads) and analyzed using the equation one site-specific binding with hill slope (Figs. 1f–i, and Supplementary Fig. 1f). The IC50 was determined using the log(inhibitor) vs. response – variable slope (four parameters) equation (Fig. 8b and d). A paired t-test was used for matched samples (Fig. 8b) and an unpaired t-test was used for unpaired samples (Figs. 7c and 8e).

[4] = source data, One site -- Specific binding with Hill slope
[5] = source data, One site -- Specific binding with Hill slope, concentrations c H-T6 in nM, read-out: Kd (best-fit value)

| Molecule | T6 interaction (peptide array) [1] | T2 interaction (peptide array) [2] | h (Hill slope, best-fit value) [3, 4] | Bmax (best-fit value) [3, 4] | also measured |
| --- | --- | --- | --- | --- | --- |
| GSNTAAAVAEALHGCQPVTQEDGKESRISV [peptide 5, CD40 244-273, A250xAxA] | - | - |  |  |  |
| KAEAQAINFPDDLPGSNTAAPVQETLHGCQ [peptide 3, CD40 230-259, A231xAxA] | - | + |  |  |  |
| KQEPQEINFPDDLPGSNTAAPVQETLHGCQ [peptide 1, CD40 amino acids 230-259] | + | + |  |  |  |
| RANK E346Q (GGGPYAQGEDARMLSLVSKTEIEEDSFRQMPTQDEYMDRPSQ; also: GST fusion left off, end not given here) |  |  | 1.998 | 1302008 |  |
| RANK: recombinant GST-RANK314-355 (GGGPYAQGEDARMLSLVSKTEIEEDSFRQMPTEDEYMDRPSQ; also: GST fusion left off, end not given here) |  |  | 2.024 | 1370733 | Kd [3, 5]: 7.74 nM |
| PHLPTLLLGSSGSGGDDDDPHGAVALAYYD [peptide 12, LMP1 357-386, A379xAxA] | - | - |  |  | TRAF6 binding to immobilized peptide (in words) [1]: abolished the direct TRAF6 binding |
| GSNTAAPVQETLHGCQPVTQEDGKESRISV [peptide 4, CD40 244-273] | - | + |  |  |  |
| … GDDDDPHGPVQLSAAD [peptide 9, LMP1 371-386, A384A385] | - | - |  |  | TRAF6 binding to immobilized peptide (in words) [1]: abolished the direct TRAF6 binding |
| DDSLPHPQQATDDSGHESDSNSNEGRHHLL [peptide 6, LMP1 198-227] | - | + |  |  | TRAF6 binding to immobilized peptide (in words) [1]: did not bind; TRAF2 binding to immobilized peptide (in words) ([2]; peptide array): bound |
| PHLPTLLLGSSGSGGDDDDPHGPVQLSYYD [peptide 11, LMP1 357-386 (30mer)] | + | - |  |  | TRAF6 binding to immobilized peptide (in words) [1]: efficiently captured |
| … GDDDDPHGPVQLSYYD [peptide 8, LMP1 371-386 (16mer)] | + | - |  |  | TRAF6 binding to immobilized peptide (in words) [1]: efficiently captured |
| 2: CD40 230-259, A250xAxA (KQEPQEINFPDDLPGSNTAAAVAEALHGCQ; UniProt P25942 230-259, looked up, variant P250A Q252A T254A) [compound 2] | + | - |  |  |  |
| LMP1 Q381E (protein, left off: GST, end not stated, kept) LIWMYYHGQRHSDEHHHDDSLPHPQQATDDSGHESDSNSNEGRHHLLVSGAGDGPPLCSQNLGAPGGGPDNGPQDPDNTDDNGPQDPDNTDDNGPHDPLPQDPDNTDDNGPQDPDNTDDNGPHDPLPHSPSDSAGNDGGPPQLTEEVENKGGDQGPPLMTDGGGGHSHDSGHGGGDPHLPTLLLGSSGSGGDDDDPHGPVELSYYD |  |  | 1.772 | 1507585 | fold enhanced affinity for TRAF6 ([3]; compared with LMP1 wild-type): 5.0 -fold |
| LMP1 Y384D (protein, left off: GST, end not stated, kept) LIWMYYHGQRHSDEHHHDDSLPHPQQATDDSGHESDSNSNEGRHHLLVSGAGDGPPLCSQNLGAPGGGPDNGPQDPDNTDDNGPQDPDNTDDNGPHDPLPQDPDNTDDNGPQDPDNTDDNGPHDPLPHSPSDSAGNDGGPPQLTEEVENKGGDQGPPLMTDGGGGHSHDSGHGGGDPHLPTLLLGSSGSGGDDDDPHGPVQLSDYD |  |  |  |  | TRAF6 binding/affinity (in words) ([3]; AlphaScreen PPI): TRAF6 binding was not abolished; reduction of affinity to TRAF6 (factor) ([3]; compared with the respective wild-type receptor): 1.8; Kd ([3]; one site, specific binding with Hill slope, c H-T6 in nM, hook effect data excluded, 95% CI A204xAxA 52,94 to 93,02, Y384D 72,59 to 190,2, read-out: Kd): 131 nM; h (Hill slope) ([3]; one site, specific binding with Hill slope, hook effect data excluded, Std. Error A204xAxA 0.2126, Y384D 0.1712): 1.019; Bmax ([3]; one site, specific binding with Hill slope, hook effect data excluded, Std. Error A204xAxA 67298, Y384D 78225): 1231417 |
| LMP1 Y384F (protein, left off: GST, end not stated, kept) LIWMYYHGQRHSDEHHHDDSLPHPQQATDDSGHESDSNSNEGRHHLLVSGAGDGPPLCSQNLGAPGGGPDNGPQDPDNTDDNGPQDPDNTDDNGPHDPLPQDPDNTDDNGPQDPDNTDDNGPHDPLPHSPSDSAGNDGGPPQLTEEVENKGGDQGPPLMTDGGGGHSHDSGHGGGDPHLPTLLLGSSGSGGDDDDPHGPVQLSFYD |  |  | 1.321 | 1186145 | TRAF6 binding/affinity (in words) ([3]; AlphaScreen PPI): improved the affinity of LMP1 for TRAF6; also recorded: higher affinity of Y384F to TRAF6 as compared to wild-type LMP1; Kd ([3]; AlphaScreen PPI, His-TRAF6_310-522 titrated with GST-receptor protein, PBS 0.5% BSA 0.1% Tween-20, 1 h RT, one site-specific binding with hill slope, mean ± SD, n = 3 (CD40), 4 (LMP1), 6 (RANK), read-out: KD of TRAF6 interaction): 21.7 ± 6.6 nM; Kd [3, 5]: 21.7 nM |
| CD40: recombinant GST-CD40_216-277 (protein, left off: GST, end not stated, kept) KKVAKKPTNKAPHPKQEPQEINFPDDLPGSNTAAPVQETLHGCQPVTQEDGKESRISVQERQ |  |  | 2.083 | 1455821 |  |
| CD40 E235Q (protein, left off: GST, end not stated, kept) KKVAKKPTNKAPHPKQEPQQINFPDDLPGSNTAAPVQETLHGCQPVTQEDGKESRISVQERQ |  |  | 1.924 | 1053663 |  |
